Measured values taken from patent US20050032750A1, “Treating androgen deficiency in female (ADIF)-associated conditions with SARMS” (priority 2003, published 2005).

Columns and labels:
[1] = system: ovariectomized (OVX) rat model of postmenopausal bone loss; test: Femoral pQCT analysis of mid-shaft cortical content; type: in vivo; details: 120 days
Description: (§1) One hundred twenty female Sprague-Dawley rats were purchased from Harlan (Indiapolis, Ind.). The animals were housed three per cage and were allowed free access to tap water and commercial rat chow (Harlan Teklad 22/5 rodent diet—8640). During the course of the study, the animals were maintained on a 12 hr light:dark cycle. This study was reviewed and approved by the Institutional Laboratory Care and Use Committee of The Ohio State University. […] Dosing solutions were prepared daily by dissolving drug in dimethyl sulfoxide (DMSO) and diluting in polyethylene glycol 300 (PEG 300). All doses were administered for 120 days via daily subcutaneous injections in a volume of 0.20 ml.
(§2) The right femurs from groups 5, 6, 7, 9, 10, and 12 were sent to Skeletech, Inc. (Bothell, Wash.) for pQCT analysis and biomechanical testing. The femur was subject to pQCT scan using a Stratec XCT RM and associated software (Stratec Medizintechnik GmbH, Pforzheim, Germany. Software version 5.40 C). The femur was scanned at the mid-shaft. The position was verified using scout views and scan results from one 0.5 mm slice perpendicular to the long axis of the femur. Cortical bone mineral content was analyzed. After pQCT analysis, the de-fleshed whole femur was used in the three point bending test. The femur was placed on the lower supports of a three point bending fixture with anterior side facing downward in an Instron Mechanical Testing Machine (Instron 4465 retrofitted to 5500). The upper loading device was aligned to the center of the femoral shaft. The load was applied at a constant displacement rate of 6 mm/min until the femur broke. The location of maximal load was selected manually and values were calculated by machine's software (Merlin II, Instron). Maximum load was measured directly by the mechanical testing machine. The length between two supports was set to 14mm.
(§3) The results were analyzed using Tukey's honestly significant difference method in a one-way analysis of variance and expressed as mean ±S.E.M. Significance was reported when P<0.05. SPSS 11.5.0 (Chicago, Ill.) was used to analyze the results.

[2] = system: castrated male rats; test: Androgenic and anabolic effects in castrated male rats; type: in vivo, rat
[3] = system: ovariectomized female rats; test: Bone mineral content by whole body DEXA after ovariectomy (Example 2); type: in vivo, rat; details: OVX female rats, 30 day treatment period
[4] = system: ovariectomized (OVX) rat model of postmenopausal bone loss; test: Femoral three point bending test (maximum load); type: in vivo; details: OVX rats, 120 days
Description: as §1, §2
The results were analyzed using Tukey's honestly significant difference method in a one-way analysis of variance and expressed as mean ±S.E.M. Significance was reported when P<0.05. […]

[5] = system: myosin heavy chain (MHC) IIb mRNA; test: Myosin heavy chain (MHC) IIb mRNA expression in masseter muscle by RT-PCR; type: in vivo, rat; details: intact female rats, untreated control = 100%
Text: MHC is the predominant protein in skeletal muscle encoded by a multigene family expressed in a tissue-specific and developmentally regulated manner. In steady state, MRNA expression usually parallels the pattern of MHC protein expression. Because transcription of MHC MRNA occurs in advance of MHC protein translation, and the increased sensitivity of RT-PCR compared to western blotting, rapid changes in mRNA expression can be detected and used to analyze the subtle dynamic effects of muscle anabolism.
The masseter muscle dissected from untreated intact female rats was set as the control level (representing 100%) of MHC IIb expression (FIG. 1A). Intact female rats treated with androgens were evaluated against the untreated controls for the effect of treatment on MHC IIb from masseter.

[6] = system: ovariectomized (OVX) rat model of postmenopausal bone loss; test: Whole body DEXA analysis (BMD, percent fat mass, body weight) in OVX rat model; type: in vivo; details: for change in whole body BMD between day 0 and day 120: 120 days; for body weight gain: day 0 to 120
Description: as §1
Total body bone mineral density (BMD), percent fat mass (FM), and body weight (BW) were determined by dual energy x-ray absorptiometry (DEXA) (GE, Lunar Prodigy™) using the small animal software (Lunar enCORE, version 6.60.041) on days 0 and 120. Total body data was obtained by selecting an area encompassing the entire animal as the region of interest during data processing. For scanning, the animals were anesthetized with ketariine:xylazine (87:13 mg/kg).
as §3

[7] = system: ovariectomized (OVX) rat model of postmenopausal bone loss; test: Ex vivo DEXA analysis of L2-L4 vertebrae BMD; type: in vivo; details: 120 days
Description: as §1
Immediately following the whole body DEXA scan on day 120, groups 1-11 were sacrificed, and the lumbar vertebrae, femurs, and tibia were excised and cleared of soft tissue. Group 12 was sacrificed at day 210. The excised bones were scanned through a 3 in deep room temperature water bath, to simulate soft tissue and prevent beam-hardening effects. The L2-L4 vertebrae were selected as a region of interest and analyzed for BMD by DEXA.
as §3

Compound: CC(=O)Nc1ccc(OC[C@](C)(O)C(=O)Nc2ccc([N+](=O)[O-])c(C(F)(F)F)c2)cc1 [Compound VI, S-3-(4-acetylamino-phenoxy)-2-hydroxy-2-methyl-N-(4-nitro-3-trifluoromethyl-phenyl)-propionamide]
- Cortical Content (CC) of mid-shaft femur ([1]; OVX rats, 1.0 mg/day): completely prevent the loss in CC
- Cortical Content (CC) of mid-shaft femur ([1]; OVX rats, 3.0 mg/day): increase the CC in OVX animals above that of intact animals
- Cortical Content (CC) of mid-shaft femur ([1]; intact rats, 1 mg/day): not different from intact controls
- prostate restored, % of intact animals [2]: 34%
- seminal vesicles restored, % of intact animals [2]: 28%
- bone mineral content compared with intact control or placebo-treated groups [3]: maintained and improved the bone mineral content
- femur biomechanical strength (maximum load) ([4]; 1.0 mg/day): prevent the loss of bone strength
- femur biomechanical strength (maximum load) ([4]; 3.0 mg/day): increase in maximum load
- transcription of MHC type IIb, % of untreated control [5]: 137%
- change in whole body BMD between day 0 and day 120 ([6]; OVX rats, 0.1 mg/day sc): not significantly different from OVX controls
- percent body fat at day 120 ([6]; OVX rats, 3.0 mg/day): not different from intact controls
- body weight gain ([6]; OVX rats, 3.0 mg/day): gained more weight than the other groups
- percent fat mass at day 120 ([6]; OVX rats, 0.1-3.0 mg/day): dose dependent decrease in percent fat mass
- body weight gain ([6]; OVX rats, 0.1-3.0 mg/day): dose-dependent trend in body weight gain
- change in whole body BMD between day 0 and day 120 ([6]; OVX rats, doses greater than 0.1 mg/day sc): prevent the loss of whole body BMD
- mean percent fat mass at day 120 ([6]; intact rats, 1 mg/day): lower in intact Compound VI treated animals than intact controls
- L2-L4 BMD ([7]; OVX rats, 0.5 and 3.0 mg/kg dose groups): significantly higher BMD than the OVX control group
- L2-L4 BMD ([7]; OVX rats, greater than 0.3 mg/day): not significantly different from intact controls

Compound: C[C@]12CCC(=O)C[C@@H]1CC[C@@H]1[C@@H]2CC[C@]2(C)[C@@H](O)CC[C@@H]12 [DHT, dihydrotestosterone, reference compound]
- Cortical Content (CC) of mid-shaft femur ([1]; OVX rats, DHT 1 mg/day): partially prevented the loss in CC, these results were not significant
- femur biomechanical strength (maximum load) ([4]; DHT 1 mg/day): prevent the loss in bone strength
- change in whole body BMD between day 0 and day 120 ([6]; OVX rats, DHT 1 mg/day sc): not significantly different from OVX controls
- change in whole body BMD between day 0 and day 120 ([6]; intact rats, DHT 1 mg/day sc): prevented the age related increase in BMD
- L2-L4 BMD ([7]; OVX rats, DHT 1 mg/day): only able to partially maintain the L2-L4 BMD
- L2-L4 BMD ([7]; intact rats, DHT 1 mg/day): caused a reduction in L2-L4 BMD

Compound: CCC(=O)O[C@H]1CC[C@H]2[C@@H]3CCC4=CC(=O)CC[C@]4(C)[C@H]3CC[C@]12C [testosterone propionate, reference compound]
- transcription of MHC type IIb, % of untreated control [5]: 133%
